Results published in patent US7060709B2, “Method of treating hepatic fibrosis” (Wyeth, priority 2003, dated 2006).

Experiments:
[1] = system: orthotopic glioma; details: nude mice; cited from earlier work
[2] = system: human tumor xenografts; details: nude mice, cited from earlier work
[3] = system: histologically diverse tumor cells; details: cited from earlier work
[4] = stability of CCI-779 in parenteral cosolvent formulation; type: physicochemical; details: citric acid at a concentration of less than 0.01% w/v
Description: In this embodiment, the stability of CCI-779 in parenterally acceptable alcoholic cosolvents is enhanced by addition of an antioxidant to the formulation. Acceptable antioxidants include, but are not limited to, citric acid, d,l-α-tocopherol, BHA, BHT, monothioglycerol, ascorbic acid, propyl gallate, and mixtures thereof. Generally, the parenteral formulations useful in this embodiment of the invention will contain an antioxidant component(s) in a concentration ranging from 0.001% to 1% w/v, or 0.01% to 0.5% w/v, of the cosolvent concentrate, although lower or higher concentrations may be desired. Of the antioxidants, d,l-α-tocopherol is particularly desirable and is used at a concentration of 0.01 to 0.1% w/v with a preferred concentration of 0.075% w/v of the cosolvent concentrate.
Examples of such chelating agents include, e.g., citric acid, acetic acid, and ascorbic acid (which may function as both a classic antioxidant and a chelating agent in the present formulations). Other chelating agents include such materials as are capable of binding metal ions in solution, such as ethylene diamine tetra acetic acid (EDTA), its salts, or amino acids such as glycine are capable of enhancing the stability of CCI-779. […] Optimal concentrations for the selected antioxidant(s) can be readily determined by one of skill in the art, based upon the information provided herein.

[5] = system: human glioblastoma cell line; details: human glioblastoma cell line in vitro; cited from earlier work

CO[C@H]1C[C@@H]2CC[C@@H](C)[C@@](O)(O2)C(=O)C(=O)N2CCCC[C@H]2C(=O)O[C@H]([C@H](C)C[C@@H]2CC[C@@H](OC(=O)C(C)(CO)CO)[C@H](OC)C2)CC(=O)[C@H](C)/C=C(\C)[C@@H](O)[C@@H](OC)C(=O)[C@H](C)C[C@H](C)/C=C/C=C/C=C/1C [CCI-779, Rapamycin 42-ester with 3-hydroxy-2-(hydroxymethyl)-2-methylpropionic acid]
activity in orthotopic glioma model [1]: active
growth of several human pancreatic tumors and one of two breast cancer lines ([2]; in vivo): inhibited
activity against human tumor xenografts of diverse histological types ([2]; gliomas particularly sensitive): has activity
cell cycle effect ([3]; in vitro tumor cells): arrested cells in the G1 phase
growth of tumor cells ([3]; in vitro, CNS cancer, leukemia (T-cell), breast cancer, prostate cancer and melanoma lines among the most sensitive): inhibit the growth
stability of CCI-779 [4]: enhanced the stability
growth factor (platelet-derived)-induced stimulation [5]: markedly suppressed
